# Laboratory results as given in ChEMBL document CHEMBL1125017, “Potent anticonflict activity and lessening of memory impairment with a series of novel [1]benzothieno[2,3-c]pyridines and 1,2,3,4-tetrahydro[1]benzothieno[2,3-c]pyridines” (J Med Chem, 1990).
# Test system: Rattus norvegicus
# Assay: No of shocks of 5 min was reported after oral administration of a dose of 5 mg/kg in 43 rats; 25/43
# Format: functional
# Conditions: not given
row,Compound,No. of shocks
1,CN1C(=O)CN=C(c2ccccc2)c2cc(Cl)ccc21 [DIAZEPAM],22.7

# Biological target: T1, 5-hydroxytryptamine receptor 1A (Rattus norvegicus, UniProt P19327)
# T1 sequence (P19327 whole entry): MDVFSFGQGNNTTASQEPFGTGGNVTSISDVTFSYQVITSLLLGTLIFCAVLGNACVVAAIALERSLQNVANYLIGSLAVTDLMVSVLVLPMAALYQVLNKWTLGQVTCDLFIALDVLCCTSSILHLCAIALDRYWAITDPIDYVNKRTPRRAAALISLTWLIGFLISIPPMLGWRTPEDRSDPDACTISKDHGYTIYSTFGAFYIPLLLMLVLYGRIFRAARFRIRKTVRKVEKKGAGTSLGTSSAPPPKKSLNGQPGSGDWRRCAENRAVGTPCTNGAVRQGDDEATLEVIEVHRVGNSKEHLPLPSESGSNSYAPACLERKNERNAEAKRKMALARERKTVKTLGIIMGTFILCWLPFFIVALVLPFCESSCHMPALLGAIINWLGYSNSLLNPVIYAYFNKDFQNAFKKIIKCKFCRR
# Assay: Binding affinity towards 5-hydroxytryptamine 1A receptor in rat brain
# Format: tissue-based
# Conditions: not given
row,Compound,Ki
1,O=C(NC1CCCCC1)C1Cc2c(sc3ccccc23)CN1 (stereo not drawn),0.28 µM

# Biological target: GABA-A receptor; anion channel
# Assay: Inhibition of [3H]flunitrazepam binding to GABA-A Benzodiazepine receptor of Wistar rat cerebral cortex
# Format: tissue-based
# Conditions: not given
row,Compound,IC50
1,CCOC(=O)C1Cc2c(sc3ccccc23)CN1 (stereo not drawn),1500 µM
2,CCCOC(=O)c1cc2c(cn1)sc1ccccc12,1530 µM
3,O=C(NC1CCCCC1)C1Cc2c(sc3ccccc23)CN1 (stereo not drawn),1600 µM
4,NC(=O)c1cc2c(cn1)sc1ccccc12,1560 µM

# Test system: Rattus norvegicus
# Assay: No. rats showing anticonflict activity after oral administration of a dose of 40 mg/kg; Number of rats which received shocks more than twice vs shocks received in control rats to that of number of rats tested 6/9
# Format: functional
# Conditions: not given
row,Compound,Anticonflict activity
1,O=C(NC1CCCCC1)C1Cc2c(sc3ccccc23)CN1 (stereo not drawn),6

# Test system: Rattus norvegicus
# Assay: No of shocks of 5 min was reported after oral administration of a dose of 20 mg/kg in 10 rats
# Format: functional
# Conditions: not given
row,Compound,No. of shocks
1,CCOC(=O)C1Cc2c(sc3ccccc23)CN1 (stereo not drawn),29.3
2,O=C(NC1CCCCC1)C1Cc2c(sc3ccccc23)CN1 (stereo not drawn),28.1

# Test system: Mus musculus
# Assay: No. rats showing anticonflict activity after oral administration of a dose of 20 mg/kg; Number of mice which prolonged latency more than twice the duration of mice administered Scopolamine singly/number of mice tested 3/8
# Format: functional
# Conditions: not given
row,Compound,Antiamnesic activity
1,O=C(NC1CCCCC1)C1Cc2c(sc3ccccc23)CN1 (stereo not drawn),3

# Test system: Rattus norvegicus
# Assay: No. rats showing anticonflict activity after oral administration of a dose of 5 mg/kg; Number of rats which received shocks more than twice vs shocks received in control rats to that of number of rats tested 3/10
# Format: functional
# Conditions: not given
row,Compound,Anticonflict activity
1,CCOC(=O)C1Cc2c(sc3ccccc23)CN1 (stereo not drawn),3
2,O=C(NC1CCCCC1)C1Cc2c(sc3ccccc23)CN1 (stereo not drawn),3

# Test system: Mus musculus
# Assay: Latency step was determined after oral administration of a dose of 5 mg/kg in 8 mice
# Format: functional
# Conditions: not given
row,Compound,Activity
1,CCOC(=O)C1Cc2c(sc3ccccc23)CN1 (stereo not drawn),68.8
2,O=C(NC1CCCCC1)C1Cc2c(sc3ccccc23)CN1 (stereo not drawn),67.5
3,Cl.NCCNC(=O)c1cc2c(cn1)sc1ccccc12,65.5

# Test system: Mus musculus
# Assay: Latency step was determined after oral administration of a dose of 20 mg/kg in 8 mice.
# Format: functional
# Conditions: not given
row,Compound,Activity
1,Cl.NCCNC(=O)c1cc2c(cn1)sc1ccccc12,106.7

# Test system: Mus musculus
# Assay: No. of mice showing anti-amnesic activity after oral administration of a dose of 5 mg/kg; Number of mice which prolonged latency more than twice the duration of mice administered Scopolamine singly/number of mice tested 4/8
# Format: functional
# Conditions: not given
row,Compound,Antiamnesic activity
1,Cl.NCCNC(=O)c1cc2c(cn1)sc1ccccc12,4

# Test system: Rattus norvegicus
# Assay: No. rats showing anticonflict activity after oral administration of a dose of 20 mg/kg; Number of rats which received shocks more than twice vs shocks received in control rats to that of number of rats tested 6/10
# Format: functional
# Conditions: not given
row,Compound,Anticonflict activity
1,CCOC(=O)C1Cc2c(sc3ccccc23)CN1 (stereo not drawn),6

# Test system: Rattus norvegicus
# Assay: No of shocks of 5 min was reported after oral administration of a dose of 5 mg/kg in 10 rats
# Format: functional
# Conditions: not given
row,Compound,No. of shocks
1,CCOC(=O)C1Cc2c(sc3ccccc23)CN1 (stereo not drawn),16.1
2,O=C(NC1CCCCC1)C1Cc2c(sc3ccccc23)CN1 (stereo not drawn),15.5

# Test system: Rattus norvegicus
# Assay: No. rats showing anticonflict activity after oral administration of a dose of 20 mg/kg; Number of rats which received shocks more than twice vs shocks received in control rats to that of number of rats tested 5/10
# Format: functional
# Conditions: not given
row,Compound,Anticonflict activity
1,O=C(NC1CCCCC1)C1Cc2c(sc3ccccc23)CN1 (stereo not drawn),5

# Test system: Mus musculus
# Assay: Lessening of memory impairment measured in mice; time of latency in seconds at an intravenous dose of 10 mg/kg.
# Format: functional
# Conditions: not given
row,Compound,Activity
1,CCOC(=O)C1Cc2c(sc3ccccc23)CN1 (stereo not drawn),90.5
2,CCNC(=O)c1cc2c(cn1)sc1ccccc12,36.3
3,O=C(O)c1cc2c(cn1)sc1ccccc12,55.8
4,O=C(c1cc2c(cn1)sc1ccccc12)N1CCCCC1,60.2
5,COC(=O)c1cc2c(cn1)sc1ccccc12,31.6
6,CCOC(=O)C1Cc2c(sc3ccccc23)CN1C (stereo not drawn),32.9
7,CCCOC(=O)c1cc2c(cn1)sc1ccccc12,22.1
8,CCCCCCNC(=O)c1cc2c(cn1)sc1ccccc12,62.3
9,CNC(=O)c1cc2c(cn1)sc1ccccc12,28.6
10,CCCNC(=O)c1cc2c(cn1)sc1ccccc12,42
11,NNC(=O)c1cc2c(cn1)sc1ccccc12,20.4
12,O=C(c1cc2c(cn1)sc1ccccc12)N1CCOCC1,52.9
13,O=C(NC1CCCCC1)C1Cc2c(sc3ccccc23)CN1 (stereo not drawn),120.4
14,CCCOC(=O)C1Cc2c(sc3ccccc23)CN1 (stereo not drawn),57.2
15,NC(=O)c1cc2c(cn1)sc1ccccc12,24.7
16,Cl.NCCNC(=O)c1cc2c(cn1)sc1ccccc12,103.9

# Test system: Mus musculus
# Assay: […] activity after oral administration of a dose of 40 mg/kg; Number of mice which prolonged latency more than twice the duration of mice administered Scopolamine singly/number of mice tested 6/8
# Format: functional
# Conditions: not given
row,Compound,Antiamnesic activity
1,CCOC(=O)C1Cc2c(sc3ccccc23)CN1 (stereo not drawn),6

# Test system: Mus musculus
# Assay: Latency step was determined after oral administration of a dose of 40 mg/kg in 8 mice
# Format: functional
# Conditions: not given
row,Compound,Activity
1,CCOC(=O)C1Cc2c(sc3ccccc23)CN1 (stereo not drawn),129.9

# Test system: Rattus norvegicus
# Assay: No of shocks of 5 min was reported after oral administration of a dose of 40 mg/kg
# Format: functional
# Conditions: not given
row,Compound,No. of shocks
1,Cl.NCCNC(=O)c1cc2c(cn1)sc1ccccc12,22

# Test system: Mus musculus
# Assay: […] activity after oral administration of a dose of 5 mg/kg in mice; Number of mice which prolonged latency more than twice the duration of mice administered Scopolamine singly/number of mice tested 1/10
# Format: functional
# Conditions: not given
row,Compound,Antiamnesic activity
1,CN1C(=O)CN=C(c2ccccc2)c2cc(Cl)ccc21 [DIAZEPAM],1

# Test system: Rattus norvegicus
# Assay: No. rats showing anticonflict activity after oral administration of a dose of 20 mg/kg; Number of rats which received shocks more than twice vs shocks received in control rats to that of number of rats tested 2/8
# Format: functional
# Conditions: not given
row,Compound,Anticonflict activity
1,Cl.NCCNC(=O)c1cc2c(cn1)sc1ccccc12,2

# Test system: Mus musculus
# Assay: Latency step was determined after oral administration of a dose of 20 mg/kg in 8 mice
# Format: functional
# Conditions: not given
row,Compound,Activity
1,CCOC(=O)C1Cc2c(sc3ccccc23)CN1 (stereo not drawn),110.1
2,O=C(NC1CCCCC1)C1Cc2c(sc3ccccc23)CN1 (stereo not drawn),85

# Test system: Rattus norvegicus
# Assay: Anticonflict activity was measured in male wistar rats; number of shocks received in 5 min at a dose of 3 mg/kg ip
# Format: functional
# Conditions: route intraperitoneal
row,Compound,Activity
1,CN1C(=O)CN=C(c2ccccc2)c2cc(Cl)ccc21 [DIAZEPAM],39.4

# Test system: Rattus norvegicus
# Assay: Anticonflict activity measured in male wistar rats; number of shocks received in 5 min at an intravenous dose of 10 mg/kg.
# Format: functional
# Conditions: not given
row,Compound,Activity
1,CCOC(=O)C1Cc2c(sc3ccccc23)CN1 (stereo not drawn),27.2
2,CCNC(=O)c1cc2c(cn1)sc1ccccc12,8.5
3,O=C(O)c1cc2c(cn1)sc1ccccc12,4
4,O=C(c1cc2c(cn1)sc1ccccc12)N1CCCCC1,5
5,COC(=O)c1cc2c(cn1)sc1ccccc12,8.5
6,CCOC(=O)C1Cc2c(sc3ccccc23)CN1C (stereo not drawn),22
7,CCCOC(=O)c1cc2c(cn1)sc1ccccc12,9.6
8,CCCCCCNC(=O)c1cc2c(cn1)sc1ccccc12,10.5
9,CNC(=O)c1cc2c(cn1)sc1ccccc12,8.4
10,CCCNC(=O)c1cc2c(cn1)sc1ccccc12,17.3
11,NNC(=O)c1cc2c(cn1)sc1ccccc12,11.2
12,O=C(c1cc2c(cn1)sc1ccccc12)N1CCOCC1,8.2
13,O=C(NC1CCCCC1)C1Cc2c(sc3ccccc23)CN1 (stereo not drawn),36.9
14,CCCOC(=O)C1Cc2c(sc3ccccc23)CN1 (stereo not drawn),14.5
15,NC(=O)c1cc2c(cn1)sc1ccccc12,17
16,Cl.NCCNC(=O)c1cc2c(cn1)sc1ccccc12,37.2

# Test system: Mus musculus
# Assay: No. of mice showing anti-amnesic activity after oral administration of a dose of 20 mg/kg; Number of mice which prolonged latency more than twice the duration of mice administered Scopolamine singly/number of mice tested 4/8
# Format: functional
# Conditions: not given
row,Compound,Antiamnesic activity
1,Cl.NCCNC(=O)c1cc2c(cn1)sc1ccccc12,4

# Test system: Mus musculus
# Assay: No. of mice showing anti-amnesic activity after oral administration of a dose of 40 mg/kg; Number of mice which prolonged latency more than twice the duration of mice administered Scopolamine singly/number of mice tested 6/8
# Format: functional
# Conditions: not given
row,Compound,Antiamnesic activity
1,Cl.NCCNC(=O)c1cc2c(cn1)sc1ccccc12,6

# Test system: Rattus norvegicus
# Assay: No. rats showing anticonflict activity after oral administration of a dose of 10 mg/kg; Number of rats which received shocks more than twice vs shocks received in control rats to that of number of rats tested 25/43
# Format: functional
# Conditions: not given
row,Compound,Anticonflict activity
1,CN1C(=O)CN=C(c2ccccc2)c2cc(Cl)ccc21 [DIAZEPAM],25

# Test system: Mus musculus
# Assay: Number of mice showing anti-amnesic activity after oral administration of a dose of 5 mg/kg; Number of mice which prolonged latency more than twice the duration of mice administered Scopolamine singly/number of mice tested 2/8
# Format: functional
# Conditions: not given
row,Compound,Antiamnesic activity
1,CCOC(=O)C1Cc2c(sc3ccccc23)CN1 (stereo not drawn),2

# Test system: Rattus norvegicus
# Assay: No of shocks of 5 min was reported after oral administration of a dose of 40 mg/kg in 9 rats
# Format: functional
# Conditions: not given
row,Compound,No. of shocks
1,CCOC(=O)C1Cc2c(sc3ccccc23)CN1 (stereo not drawn),30.2
2,O=C(NC1CCCCC1)C1Cc2c(sc3ccccc23)CN1 (stereo not drawn),26.9

# Test system: Mus musculus
# Assay: No. rats showing anticonflict activity after oral administration of a dose of 20 mg/kg; Number of mice which prolonged latency more than twice the duration of mice administered Scopolamine singly/number of mice tested 4/8
# Format: functional
# Conditions: not given
row,Compound,Antiamnesic activity
1,CCOC(=O)C1Cc2c(sc3ccccc23)CN1 (stereo not drawn),4

# Test system: Mus musculus
# Assay: Latency step was determined after oral administration of a dose of 40 mg/kg in 8 mice.
# Format: functional
# Conditions: not given
row,Compound,Activity
1,Cl.NCCNC(=O)c1cc2c(cn1)sc1ccccc12,125.1

# Test system: Rattus norvegicus
# Assay: No. rats showing anticonflict activity after oral administration of a dose of 40 mg/kg; Number of rats which received shocks more than twice vs shocks received in control rats to that of number of rats tested 8/10
# Format: functional
# Conditions: not given
row,Compound,Anticonflict activity
1,CCOC(=O)C1Cc2c(sc3ccccc23)CN1 (stereo not drawn),8

# Test system: Rattus norvegicus
# Assay: No of shocks of 5 min was reported after oral administration of a dose of 20 mg/kg
# Format: functional
# Conditions: not given
row,Compound,No. of shocks
1,Cl.NCCNC(=O)c1cc2c(cn1)sc1ccccc12,9.3

# Test system: Rattus norvegicus
# Assay: No. rats showing anticonflict activity after oral administration of a dose of 40 mg/kg; Number of rats which received shocks more than twice vs shocks received in control rats to that of number of rats tested 4/7
# Format: functional
# Conditions: not given
row,Compound,Anticonflict activity
1,Cl.NCCNC(=O)c1cc2c(cn1)sc1ccccc12,4

# Test system: Mus musculus
# Assay: […] activity after oral administration of a dose of 5 mg/kg; Number of mice which prolonged latency more than twice the duration of mice administered Scopolamine singly/number of mice tested 1/8
# Format: functional
# Conditions: not given
row,Compound,Antiamnesic activity
1,O=C(NC1CCCCC1)C1Cc2c(sc3ccccc23)CN1 (stereo not drawn),1
